Experimental data: US20100160454A1, “ANTIMICROBIAL AGENTS, COMPOSITIONS AND PRODUCTS CONTAINING THE SAME, AND METHODS OF USING THE COMPOSITIONS AND PRODUCTS” (Eastman Chemical Company, priority 2008, published 2010)

Legend:
Format in all cases: cell-based
[1] = system: Streptococcus mutans ATCC 35668; assay: Microbiological challenge testing in BPW broth, graded subculture counts
Protocol: (§1) The microorganisms in the table below were used in challenge tests. They were either ATCC (American Type Culture Collection) or “wild type” as indicated. Wild type organisms were problematic organisms previously isolated from chemical products.
(§2) All of the microorganisms were grown in Tryptose Soy Broth (TSB), DIFCO™ available from Becton, Dickinson and Company, containing 1% dextrose. Candida albicans and Aspergillus niger, were incubated at 22° C.+/−2° C. for at least 96 hours. All bacteria were incubated at 35° C.+/−2° C. in a humidified incubator for at least 96 hours.
(§3) The following procedure was followed to determine the amount of each challenge material (inoculum broth) needed to produce a 10^8 CFU/mL challenge, which is equivalent to a final test-sample microbial concentration of 10^5 to 10^6 CFU/mL (CFU=colony forming units).
(§4) Using a sterile pipette, 1 mL of the growth from each TSB culture was transferred into tubes of 9 mL buffered water (pH 7.2 phosphate buffer) and mixed thoroughly. This was repeated to make serial 1:10 dilutions. Then, 0.1 mL of each sample and dilution was inoculated onto agar plates to produce the equivalent of a further 1:10 dilution. (C. albicans and A. niger were inoculated onto SABD and bacteria were inoculated onto Plate Count Agar (PCA), DIFCO™ available from Becton, Dickinson and Company.) (The normal volume plated for most samples was 0.1 mL. Some samples that could be very low in micro-organisms (high dilutions) were plated using 0.5 mL of inoculum, in order to produce reproducible counts.) The samples were distributed on the plates using the spread-plate technique. The spread-plate technique is carried out by spreading the sample over the entire plate surface using a sterile spreading rod while rotating the plate with a rotary auto-plater. After the inoculum was absorbed completely by the agar, each plate was inverted and incubated (fungi at 22° C.+/−2° C. and bacteria at 35° C.+/−2° C.).
(§5) After incubation for at least 48 hours, colonies that had developed on the agar plates were counted (CFU) and recorded with the corresponding dilution. If counting had to be delayed temporarily, plates were refrigerated, preferably no more than 24 hours, until they could be counted. The number of CFU/mL was determined by multiplying the plate count by the dilution factor of the plate counted.
(§6) Turbidity in Nepholemetric Turbidity Units (NTU) was measured for each serial dilution using the HF-Micro 100 Model Turbidimeter. For each microorganism, the plate counts were compared to the turbidity readings.
(§7) Control substrates (“broth alone”) were prepared for each microorganism separately in triplicate by adding 13.5 mL of Buffered Peptone Water broth (BPW) containing 1% dextrose to each 20-mL glass tube, then adding 1.5 mL challenge material to produce a final concentration at time zero of 10^5 to 10^6 CFU/mL and a total volume of 15 mL.
(§8) Test sample substrates were prepared containing each test material listed below at the concentrations shown for challenge testing with each microorganism separately. Sample substrates were prepared in triplicate, except the substrates containing butoxyethanol which were prepared in duplicate. Substrates were prepared by adding BPW containing 1% dextrose to each 20-mL glass tube, then adding the test material in the amount appropriate to achieve the desired weight/volume percent and to achieve a total volume of BPW plus dextrose plus test material of 13.5 mL. Then 1.5 mL challenge material was added to produce a final concentration at time zero of 10^5 to 10^6 CFU/mL and a total test sample substrate volume of 15 mL.

[2] = system: Staphylococcus epidermidis ATCC 12228; assay: as above
Protocol: as §1, §2, §3, §4, §5, §6, §7, §8

[3] = system: Burkholderia cepacia Wild type; assay: as above; conditions: B. cepacia
Protocol: as §1, §2, §3, §4, §5, §6, §7, §8

[4] = system: Microsporum canis (ATTC 9084); assay: Challenge testing against pathogenic fungi, growth rating in broth tubes; design: key: 0: No visible growth; 1: Some growth in tube; 2: Moderate growth in tube; 3: Good growth in tube; 4: Extreme growth in tube
How it was run: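 Fungi grown in Sabouraud dextrose broth (M. furfur with 2% olive oil/0.2% Tween 80), 22±2 °C; tubes of 1,4-CHDM-D90 dilutions inoculated, static incubation, subcultured at 3, 14, 30 days, triplicate. Growth rated 0–4: visually (M. canis), INT redox dye (T. rubrum), pellicle formation (M. furfur); 30-day MIC.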

OCC1CCCCC1CO (stereo not drawn) [1,2-CHDM, 1,2-cyclohexanedimethanol]
S. mutans growth grade, 3 day ([1]; 0.5% weight/volume): 4 (1000 to 10,000 colonies countable (thus 10,000 CFU/mL to 100,000 CFU/mL))
S. mutans growth grade, 13 day ([1]; 0.5% weight/volume): 4 (1000 to 10,000 colonies countable (thus 10,000 CFU/mL to 100,000 CFU/mL))
S. mutans growth grade, 30 day ([1]; 0.5% weight/volume): 4 (1000 to 10,000 colonies countable (thus 10,000 CFU/mL to 100,000 CFU/mL))
S. mutans growth grade, 3 day ([1]; 1.25% weight/volume): 2 (52 to 100 colonies counted (thus 520 to 1000 CFU/mL))
S. mutans growth grade, 13 day ([1]; 1.25% weight/volume): 0
S. mutans growth grade, 30 day ([1]; 1.25% weight/volume): 0
S. mutans growth grade, 3 day ([1]; 2.5% weight/volume): 1 (0 to 51 colonies counted (thus 10 to 510 CFU/mL based on 0.1-mL sample))
S. mutans growth grade, 13 day ([1]; 2.5% weight/volume): 0
S. mutans growth grade, 30 day ([1]; 2.5% weight/volume): 0
S. mutans growth grade, 3 day ([1]; 5.0% weight/volume): 0
S. mutans growth grade, 13 day ([1]; 5.0% weight/volume): 0
S. mutans growth grade, 30 day ([1]; 5.0% weight/volume): 0
S. epidermidis growth grade, 3 day ([2]; 0.5% weight/volume): 4 (1000 to 10,000 colonies countable (thus 10,000 CFU/mL to 100,000 CFU/mL))
S. epidermidis growth grade, 13 day ([2]; 0.5% weight/volume): 3 (100 to 1000 colonies (thus 1000 to 10,000 CFU/mL))
S. epidermidis growth grade, 30 day ([2]; 0.5% weight/volume): 4 (1000 to 10,000 colonies countable (thus 10,000 CFU/mL to 100,000 CFU/mL))
S. epidermidis growth grade, 3 day ([2]; 1.25% weight/volume): 2.3
S. epidermidis growth grade, 13 day ([2]; 1.25% weight/volume): 1 (0 to 51 colonies counted (thus 10 to 510 CFU/mL based on 0.1-mL sample))
S. epidermidis growth grade, 30 day ([2]; 1.25% weight/volume): 3 (100 to 1000 colonies (thus 1000 to 10,000 CFU/mL))
S. epidermidis growth grade, 3 day ([2]; 2.5% weight/volume): 0
S. epidermidis growth grade, 13 day ([2]; 2.5% weight/volume): 0
S. epidermidis growth grade, 30 day ([2]; 2.5% weight/volume): 0
S. epidermidis growth grade, 3 day ([2]; 5.0% weight/volume): 0
S. epidermidis growth grade, 13 day ([2]; 5.0% weight/volume): 0
S. epidermidis growth grade, 30 day ([2]; 5.0% weight/volume): 0
Grade ([3]; 0.5% (wt/vol), 3 day): 4 (1000 to 10,000 colonies countable (thus 10,000 CFU/mL to 100,000 CFU/mL))
Grade ([3]; 0.5% (wt/vol), 14 day): 4 (1000 to 10,000 colonies countable (thus 10,000 CFU/mL to 100,000 CFU/mL))
Grade ([3]; 0.5% (wt/vol), 30 day): 4 (1000 to 10,000 colonies countable (thus 10,000 CFU/mL to 100,000 CFU/mL))
Grade ([3]; 1.25% (wt/vol), 3 day): 1 (0 to 51 colonies counted (thus 10 to 510 CFU/mL based on 0.1-mL sample))
Grade ([3]; 1.25% (wt/vol), 14 day): 0
Grade ([3]; 1.25% (wt/vol), 30 day): 0
Grade ([3]; 2.5% (wt/vol), 3 day): 0
Grade ([3]; 2.5% (wt/vol), 14 day): 0
Grade ([3]; 2.5% (wt/vol), 30 day): 0
Grade ([3]; 5.0% (wt/vol), 3 day): 0
Grade ([3]; 5.0% (wt/vol), 14 day): 0
Grade ([3]; 5.0% (wt/vol), 30 day): 0
M. canis growth rating, 3 day ([4]; 0.5% weight/volume): 2
M. canis growth rating, 14 day ([4]; 0.5% weight/volume): 1
M. canis growth rating, 30 day ([4]; 0.5% weight/volume): 1
M. canis growth rating, 3 day ([4]; 1.25% weight/volume): 1
M. canis growth rating, 14 day ([4]; 1.25% weight/volume): 0
M. canis growth rating, 30 day ([4]; 1.25% weight/volume): 0
M. canis growth rating, 3 day ([4]; 2.5% weight/volume): 0
M. canis growth rating, 14 day ([4]; 2.5% weight/volume): 0
M. canis growth rating, 30 day ([4]; 2.5% weight/volume): 0
M. canis growth rating, 3 day ([4]; 5.0% weight/volume): 0
M. canis growth rating, 14 day ([4]; 5.0% weight/volume): 0
M. canis growth rating, 30 day ([4]; 5.0% weight/volume): 0

CCCCOCCO [EB, 2-butoxyethanol]
S. mutans growth grade, 3 day ([1]; 2.5% weight/volume): 4 (1000 to 10,000 colonies countable (thus 10,000 CFU/mL to 100,000 CFU/mL))
S. mutans growth grade, 13 day ([1]; 2.5% weight/volume): 4 (1000 to 10,000 colonies countable (thus 10,000 CFU/mL to 100,000 CFU/mL))
S. mutans growth grade, 30 day ([1]; 2.5% weight/volume): 4 (1000 to 10,000 colonies countable (thus 10,000 CFU/mL to 100,000 CFU/mL))
S. mutans growth grade, 3 day ([1]; 5.0% weight/volume): 0
S. mutans growth grade, 13 day ([1]; 5.0% weight/volume): 0
S. mutans growth grade, 30 day ([1]; 5.0% weight/volume): 0
S. epidermidis growth grade, 3 day ([2]; 2.5% weight/volume): 4 (1000 to 10,000 colonies countable (thus 10,000 CFU/mL to 100,000 CFU/mL))
S. epidermidis growth grade, 13 day ([2]; 2.5% weight/volume): 4 (1000 to 10,000 colonies countable (thus 10,000 CFU/mL to 100,000 CFU/mL))
S. epidermidis growth grade, 30 day ([2]; 2.5% weight/volume): 4 (1000 to 10,000 colonies countable (thus 10,000 CFU/mL to 100,000 CFU/mL))
S. epidermidis growth grade, 3 day ([2]; 5.0% weight/volume): 0
S. epidermidis growth grade, 13 day ([2]; 5.0% weight/volume): 0
S. epidermidis growth grade, 30 day ([2]; 5.0% weight/volume): 0
Grade ([3]; 2.5% (wt/vol), 3 day): 4 (1000 to 10,000 colonies countable (thus 10,000 CFU/mL to 100,000 CFU/mL))
Grade ([3]; 2.5% (wt/vol), 14 day): 4 (1000 to 10,000 colonies countable (thus 10,000 CFU/mL to 100,000 CFU/mL))
Grade ([3]; 2.5% (wt/vol), 30 day): 4 (1000 to 10,000 colonies countable (thus 10,000 CFU/mL to 100,000 CFU/mL))
Grade ([3]; 5.0% (wt/vol), 3 day): 0
Grade ([3]; 5.0% (wt/vol), 14 day): 0
Grade ([3]; 5.0% (wt/vol), 30 day): 0
